Experimental data as given in patent US20070129334A1, “Orally Active Purine-Based Inhibitors of Heat Shock Protein 90” (CONFORMA THERAPEUTICS CORPORATION, priority 2001, published 2007).
pIC50: −log10 of the molar value. Like-named read-outs stand apart in the source and are kept apart here.

What was measured:
[1] = Mouse pharmacokinetics after oral administration at 100 mg/kg
[2] = test system: HER-2 receptor (Hsp90 client) in MCF-7 cells; test: HER-2 degradation assay (MCF-7 cells, 16 h, phycoerythrin-labeled antibody and flow cytometry); assay type: cell-based, human
[3] = test system: N87 xenograft model of human stomach cancer; conditions: for tumor growth inhibition: N87
[4] = Solubility in simulated gastric fluid, simulated intestinal fluid and serum; assay type: physicochemical; conditions: for Serum (PH 7.4): solubility in serum; for Gastric (PH 2.0): solubility in simulated gastric fluid; for Intestinal (PH 6.5): solubility in simulated intestinal fluid
[5] = test system: MCF-7 xenograft tumors; conditions: cited from earlier work
[6] = Water solubility
[7] = test system: MCF-7 breast cancer cells; test: MTS cell growth inhibition assay; assay type: cell-based, human; conditions: MCF-7 cells, 5 days; SEM 9-21% of the mean
[8] = test system: Hsp90 clients in N87 stomach cancer xenograft tumors; test: Pharmacodynamic effect in N87 xenograft model; assay type: in vivo, mice
Description: The pharmacodynamic effect of amine 126 was examined in a N87 xenograft model (FIG. 1b), N87 being a stomach cancer cell line expressing high HER-2 levels. Mice were administered 126.H3PO4 orally at two different regimens (2×100 or 2×200 mg/kg/day) for three days, and were sacrificed 24 h after the last dosing.

[9] = Pharmacokinetics in Balb/C mice (IV 10 mg/kg, PO 100 mg/kg)
[10] = mouse, in vivo, po, 100 mg/kg
[11] = in vivo; conditions: mouse, po, 100 mg/kg
[12] = oral 2×100 mg/kg/day for three days

SMILES: Nc1ncnc2c1nc(Sc1nc3cccc(Cl)c3s1)n2CCNC1CC1 [Compound 264]
- oral bioavailability (in words) [1]: orally bioavailable
- C-max ([1]; PO 100 mg/kg): 4513 ng/mL
- Mouse PK PO AUC at 100 mg/kg PO ([1]; PO 100 mg/kg): 430511 ng·min/mL
- Mouse PK PO Cmax at 100 mg/kg ([1]; PO 100 mg/kg): 4.479 µg/mL
- time of C-max after dosing ([1]; PO 100 mg/kg): 30 min
- half life ([1]; PO 100 mg/kg, estimated): ~1.5 h
- IC50 ([2]; 9-N-alkyl position SAR, head prints no unit, nM, read-out: HER-2): 110 nM
- tumor growth inhibition ([3]; oral 200 mg/kg 5 days/week, day 39, vs control group): 56%
- Serum (PH 7.4) [4]: 59 µg/mL
- Gastric (PH 2.0) [4]: 245 µg/mL
- Intestinal (PH 6.5) [4]: 21 µg/mL

SMILES: C#CCCCn1c(Cc2cc(OC)c(OC)c(OC)c2Cl)nc2c(N)nc(F)nc21 [PU24FCl]
- tumor growth ([5]; intraperitoneally 200 mg/kg): significantly repressed tumor growth
- pharmacodynamic response in tumors ([5]; intraperitoneally 100-300 mg/kg, DMSO/EtOH/phosphate-buffered saline 1:1:1): down-regulation of HER-2 and Raf-1
- aqueous solubility (in words) [6]: too insoluble to be effectively formulated and delivered orally
- pIC50 [7]: 5.92

SMILES: CCCCn1c(Cc2cc(OC)ccc2Cl)nc2c(N)ncnc21 [Compound 311, 9-Butyl-8-(2-chloro-5-methoxy-benzyl)-9H-purin-6-ylamine]
- melting point: 138 to 139 °C
- pIC50 ([2]; Homo sapiens, MCF7, MCF-7 cells, 16 h, average of at least three observations, read-out: HER-2 IC50): 4.70

SMILES: COc1ccc(I)c(Sc2nc3c(N)ncnc3n2CCCNC(C)C)c1.O=P(O)(O)O [Compound 126, 8-(2-Iodo-5-methoxy-phenylsulfanyl)-9-(3-isopropylamino-propyl)-9H-purin-6-ylamine H3PO4 salt]
- pIC50 ([2]; MCF-7 cells, 16 h, SEM 6-11% of the mean, read-out: HER-2 IC50): 6.74
- degradation of HER-2, pHER-2, pRaf in tumor [8, 12]: little or no degradation
- degrading Akt, pAkt, Raf-1, pMEK, cdk6, pRb in tumor [8, 12]: still effective
- levels of HER-2 and pHER-2 in tumor ([8]; oral 2×200 mg/kg/day for three days): decreased only partially
- degradation of Akt, pAkt, Raf-1, pRaf, cdk6, pRb in tumor ([8]; oral 2×200 mg/kg/day for three days, 24 h after last dosing): to levels comparable to those obtained with 17-AAG
- pIC50 [7]: 6.22
- tumor growth inhibition ([3]; oral 200 mg/kg/day, once daily, 5 days/week): Tumor growth inhibition was observed
- mortality and weight loss ([3]; oral 200 mg/kg/day, once daily, 5 days/week, mice): neither mortality nor weight loss was observed
- IV Parameters T1/2 ([9]; IV 10 mg/kg, H3PO4 salts): 4.2 h
- IV Parameters VSS ([9]; IV 10 mg/kg, H3PO4 salts): 22 L/kg
- IV Parameters Cl ([9]; IV 10 mg/kg, H3PO4 salts in phosphatidylcholine/water dispersion): 3.72 L/h/kg
- PO Parameters T1/2 ([9]; PO 100 mg/kg, H3PO4 salts): 1.5 h
- PO Parameters Tmax ([9]; PO 100 mg/kg, H3PO4 salts): 0.5 h
- PO Parameters Cmax ([9]; PO 100 mg/kg, H3PO4 salts, plasma): 4.7 µg/mL
- PO Parameters AUC ([9]; PO 100 mg/kg, over 4 h, H3PO4 salts): 450 µg·min/mL

SMILES: CC(=O)OCCCn1c(Sc2nc3cccc(Cl)c3s2)nc2c(N)ncnc21 [Compound 242]
- plasma concentrations (in words) [10]: significantly lower than 264
- pIC50 ([2]; Homo sapiens, MCF7, read-out: HER-2): 7.05
- AUC [11]: 1.04 µg·h/mL
- Serum (PH 7.4) [4]: 9 µg/mL
- Gastric (PH 2.0) [4]: 220 µg/mL
- Intestinal (PH 6.5) [4]: 16 µg/mL
